Patent US6825191B2, “Benzodiazepine derivatives” (Ajinomoto Co., Inc., priority 2000, dated 2004)

How the values were obtained:
[1] = target: T1, activated human blood coagulation factor X (Homo sapiens, UniProt P00742); test: Determination of activity of inhibiting the activated blood-coagulation factor X (chromogenic substrate, initial rate); format: biochemical; details: negative logarithm of concentration inhibiting 50% of initial rate, tris hydrochloride buffer pH 8.4, room temperature; for IC50: read-out: Activity of inhibiting activated blood coagulation factor X (pIC50) (converted)
T1 construct: purchased Enzyme Research Co
T1 sequence (P00742 235-488 limits assumed): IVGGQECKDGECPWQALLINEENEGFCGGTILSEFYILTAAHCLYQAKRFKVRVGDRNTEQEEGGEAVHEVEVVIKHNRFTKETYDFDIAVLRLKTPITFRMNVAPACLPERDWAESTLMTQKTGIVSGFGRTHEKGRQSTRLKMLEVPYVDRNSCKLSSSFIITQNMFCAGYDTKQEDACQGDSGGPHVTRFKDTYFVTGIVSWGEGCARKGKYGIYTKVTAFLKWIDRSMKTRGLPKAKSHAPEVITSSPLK
T1 sequence (P00742 41-179 partner limits assumed): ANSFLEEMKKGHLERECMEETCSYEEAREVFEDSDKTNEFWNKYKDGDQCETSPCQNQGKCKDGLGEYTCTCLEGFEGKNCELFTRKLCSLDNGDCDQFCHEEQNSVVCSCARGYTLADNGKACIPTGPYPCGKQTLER
Description: Determination of Activity of inhibiting the Activated Blood-coagulation Factor X
130 μl of 100 mM tris hydrochloride buffer adjusted to pH 8.4 was added to 10 μl of an aqueous solution of a compound to be tested. Then 10 μl of a 0.5 unit/ml solution of activated human blood coagulation factor X (a product of Enzyme Research Co.) in tris hydrochloride buffer of pH 8.4 was added to the resultant mixture. After the incubation at room temperature for 10 minutes, 50 μl of a solution of N-benzoyl-L-isoleucyl-L-glutamyl-glycyl-L-arginyl-P-nitroanilide hydrochloride (a product of Peptide Institute Inc.) adjusted to 0.8 mM with tris hydrochloride (pH 8.4) was added thereto. The a absorbance was determined and then the initial reaction rate was determined. A control was prepared in the same manner as that described above except that the solution of the compound to be tested was replaced with 10 μl of tris hydrochloride buffer adjusted to pH 8.4. The absorbance was determined with MICROPLATE READER Model 3550-UV (a product of BIO RAD) at a wave length of 405 nm at intervals of 15 seconds for 16 minutes.

blood plasma = test: Determination of blood anticoagulating activity by prothrombin time (PT) determination method; format: biochemical, human; details: negative logarithm of concentration which elongated PT of the control to twice as long; blood plasma of healthy people
Description: Determination of Blood Anticoagulating Activity
The blood anticoagulating activity was determined by a prothrombin time (PT) determination method. The PT was determined as follows: The blood was taken from healthy people. 3.8% aqueous trisodium citrate solution was added to the blood in a volume ratio of 1:10. The blood plasma was separated by the centrifugation. 5 μl of DMSO solution containing a test compound was added to 45 μl of the blood plasma. After the incubation apt room temperature for 2 minutes, a test tube containing the blood plasma solution was placed in Sysmex CA-3000 fully automatic blood coagulation determination device (a product of Toa Medical Electronics Co., Ltd), and incubated at 37° C. for 3 minutes. 100 μl of Sysmex PT II (rabbit brain tissue thromboplastin, 13.2 mM calcium chloride; a product of Toa Medical Electronics Co., Ltd) was fed into the test tube. PT was automatically determined with the device. A sample containing 5 μl of DMSO in place of the solution of the test compound was used as the control. The negative logarithm (pPT2) of the concentration of the test compound which elongated PT of the control to the twice as long was determined, and employed as the index of the blood anticoagulating activity.

human thrombin = target: T2, human thrombin (Homo sapiens, UniProt P00734); test: Determination of thrombin-inhibiting activity (chromogenic substrate S-2238, initial rate); format: biochemical; details: negative logarithm of concentration inhibiting 50% of initial rate, tris hydrochloride buffer pH 8.4, room temperature; for IC50: read-out: Thrombin-inhibiting activity (pIC50) (converted)
T2 construct: solution of human thrombin (a product of SIGMA Co.); purchased SIGMA Co
Description: Determination of Thrombin-inhibiting Activity
130 μL of 100 mM tris hydrochloride buffer adjusted to pH 8.4 was added to 10 μl of an aqueous solution of a test compound. Then 10 μl of a solution of human thrombin (a product of SIGMA Co.) adjusted to 2 units/ml with tris hydrochloride buffer of pH 8.4 was added to the resultant mixture. After the incubation at room temperature for 10 minutes, 50 μl of a solution of D-phenylalanine-L-pipecolyl-L-arginine-P-nitroanilide dihydrochloride (S-2238; a product of Daiichi Kagaku Yakuhin Co.) adjusted to 0.4 mM with tris hydrochloride buffer of pH 8.4 was added thereto. The absorbance was determined and then the initial reaction rate was determined. A control was prepared in the same manner as that described above except that the solution of the compound to be tested was replaced with 10 μl of tris hydrochloride buffer adjusted to pH 8.4. The absorbance was determined with MICROPLATE READER Model 3550-UV (a product of BIO RAD) at a wave length of 405 nm at intervals of 15 seconds for 16 minutes. The negative logarithm (pIC50) of a concentration of the test compound which inhibits 50% of the activity (initial rate) of the thrombin in the absence of the test compound was determined, and employed as the index of the activity of inhibiting thrombin.

Structure (SMILES)	IC50 [1]	IC50 (human thrombin)	Activity of inhibiting activated blood coagulation factor X (pIC50) [1]	Thrombin-inhibiting activity (pIC50) (human thrombin)	Human blood anticoagulating activity (pPT2) (blood plasma)
CN1CCN=C1c1ccc(CN2C(=O)CN(C(=O)c3ccc(Cl)cc3)Cc3c(Cl)cccc32)cc1.O=C(O)C(F)(F)F [Compd. of Ex. 122, 6-chloro-4-(4-chlorobenzoyl)-1-[4-(1-methyl-4,5-dihydro-1H-imidazol-2-yl)benzyl]-1,3,4,5-tetrahydrobenzo[e][1,4]-diazepin-2-on trifluoroacetate]	0.0501 µM	> 100 µM			5.6
CN1CCN=C1c1ccc(CN2C(=O)CN(C(=O)c3ccc(Cl)cc3)Cc3ccccc32)cc1.O=C(O)C(F)(F)F [Compd. of Ex. 125, 4-(4-chlorobenzoyl)-1-[4-(1-methyl-4,5-dihydro-1H-imidazol-2-yl)benzyl]-1,3,4,5-tetrahydrobenzo[e][1,4]-diazepin-2-on trifluoroacetate]	0.251 µM	> 100 µM			5.6
CC(C)N1CCC(CN2C(=O)CN(C(=O)c3ccc(Cl)cc3)Cc3ccccc32)CC1.O=C(O)C(F)(F)F [Compd. of Ex. 142, 4-(4-chlorobenzoyl)-1-[(1-isopropyl-4-piperidinyl)methyl]-1,3,4,5-tetrahydrobenzo[e][1,4]diazepin-2-on trifluoroacetate]	0.794 µM	39.8 µM			5.5
O=C(O)C(F)(F)F.O=C(c1ccc(Cl)cc1)N1CC(=O)N(CC2CCN(C3CCCCC3)CC2)c2ccccc2C1 [Compd. of Ex. 143, 4-(4-chlorobenzoyl)-1-[(1-cyclohexyl-4-piperidinyl)methyl]-1,3,4,5-tetrahydrobenzo[e][1,4]diazepin-2-on mono(trifluoroacetate)]	0.316 µM	63.1 µM			5.4
CN1CCN=C1c1ccc(CN2C(=O)CN(C(=O)c3ccc(Cl)cc3)Cc3ccc(CCC(=O)N4CCOCC4)cc32)cc1.O=C(O)C(F)(F)F [Compd. of Ex. 144, 4-(4-chlorobenzoyl)-1-[4-(1-methyl-4,5-dihydro-1H-imidazol-2-yl)benzyl]-8-[3-(4-morpholinyl)-3-oxopropyl]-1,3,4,5-tetrahydrobenzo[e][1,4]diazepin-2-on mono(trifluoroacetate)]	0.2 µM	79.4 µM			5.6

Second part, led by results:

IC50 [1]	IC50 (human thrombin)	Activity of inhibiting activated blood coagulation factor X (pIC50) [1]	Thrombin-inhibiting activity (pIC50) (human thrombin)	Structure (SMILES)	Human blood anticoagulating activity (pPT2) (blood plasma)
0.316 µM	> 100 µM			CC(C)N1CCC(CCN2C(=O)CN(C(=O)c3ccc(Cl)cc3)Cc3ccccc32)CC1.O=C(O)C(F)(F)F [Compd. of Ex. 169, 4-(4-chlorobenzoyl)-1-[2-(1-isopropyl-4-piperidinyl)ethyl]-1,3,4,5-tetrahydrobenzo[e][1,4]diazepin-2-on trifluoroacetate]	5.4
		7.1	<4.0	CN1CC[N+](C)=C1N1CCC(CCN2C(=O)CN(C(=O)c3ccc(Cl)cc3)Cc3ccccc32)CC1.O=C([O-])C(F)(F)F [Compd. of Ex. 178, 4-(4-chlorobenzoyl)-1-[2-(1-(1,3-dimethyl-4,5-dihydro-1H-imidazo-3-ium-2-yl)-4-piperidinyl)ethyl]-1,3,4,5-tetra-hydrobenzo[e][1,4]diazepin-2-on trifluoroacetate]	5.8
0.0794 µM	> 100 µM			O=C(O)C(F)(F)F.O=C(c1ccc(CN2C(=O)CN(C(=O)c3ccc(Cl)cc3)Cc3ccccc32)nc1)N1CC=CC1 [Compd. of Ex. 181, 4-(4-chlorobenzoyl)-1-[(5-(2,5-dihydro-1H-pyrrol-1-ylcarbonyl)-2-pyridinyl)methyl]-1,3,4,5-tetrahydrobenzo[e][1,4]-diazepin-2-on trifluoroacetate]	5.3
		7.1	<4.0	CN1CCN=C1c1ccc(CN2C(=O)CN(C(=O)c3ccc(Cl)cc3)Cc3ccc(C(=O)O)cc32)cc1.O=C(O)C(F)(F)F [Compd. of Ex. 203, 4-(4-chlorobenzoyl)-2-oxo-1-[4-(1-methyl-4,5-dihydro-1H-imidazol-2-yl)benzyl]-2,3,4,5-tetrahydro-1H-benzoyl[e][1,4]-diazepine-8-carboxylic acid trifluoroacetate]	5.5
		6.5	<4.0	CCOC(=O)c1ccc2c(c1)N(Cc1ccc(C3=NCCN3C)cc1)C(=O)CN(C(=O)c1ccc(Cl)cc1)C2.O=C(O)C(F)(F)F [Compd. of Ex. 204, ethyl 4-(4-chlorobenzoyl)-2-oxo-1-[4-(1-methyl-4,5-dihydro-1H-imidazol-2-yl)benzyl]-2,3,4,5-tetrahydro-1H-benzoyl[e][1,4]diazepine-8-carboxylate trifluoroacetate]	5.2
0.2 µM	> 100 µM			CCOC(=O)c1ccc2c(c1)N(Cc1ccc(C3=[N+](C)CCN3C)cc1)C(=O)CN(C(=O)c1ccc(Cl)cc1)C2.O=C([O-])C(F)(F)F [Compd. of Ex. 206, 2-[4-((4-(4-chlorobenzoyl)-8-(ethoxycarbonyl)-2-oxo-2,3,4,5-tetrahydro-1H-1,4-benzodiazepin-1-yl)methyl)phenyl]-1,3-dimethyl-4,5-dihydro-1H-imidazol-3-ium trifluoroacetate]	5.5
0.0316 µM	> 100 µM			CN1CC[N+](C)=C1c1ccc(CN2C(=O)CN(C(=O)c3ccc(Cl)cc3)Cc3c(Cl)cccc32)cc1.O=C([O-])C(F)(F)F [Compd. of Ex. 207, 6-chloro-4-(4-chlorobenzoyl)-1-[4-(1,3-dimethyl-4,5-dihydro-1H-imidazol-3-ium-2-yl)benzyl]-1,3,4,5-tetrahydro-benzo[e][1,4]diazepin-2-on trifluoroacetate]	5.7
